Test results as given in patent publication US12138256B2, “Treatment of cardiopulmonary disorders” (Bayer Aktiengesellschaft, priority 2021, dated 2024).
Where two headings read alike, the source gives them in different places. Values belong to the molecule of their own block, whether it stands above or below them.

Columns and labels:
[1] = Caco-2 permeability test (C-5.1); format: in vitro ADME, human; settings: human; for efflux ratio at 2 h, 2 μM / Papp A→B at 2 h, 2 μM / Papp B→A at 2 h, 2 μM: Caco-2 (2 μM); for Papp A→B at 2 h, 2 μM / Papp B→A at 2 h, 2 μM: concentration per compound 2.0 or 2.4 μM; for Papp A→B at 2 h, 2 μM: read-out: Papp A-B (mean +/− SD); for Papp B→A at 2 h, 2 μM: read-out: Papp B-A (mean +/− SD)
Experimental: The in vitro permeation of a test compound across a Caco-2 cell monolayer is a well-established assay system to predict the permeability from the gastro-intestinal tract (1). The permeability of the compounds of the present invention in such Caco-2 cells was determined as described below:
Human caco-2 cells were seeded on 24-well insert plates and were allowed to grow for 14-16 days. For permeability studies, the test compounds were dissolved in DMSO and diluted to the final test concentration of 2 μM with transport buffer [Hanks' Buffered Salt Solution, Gibco/Invitrogen, further supplemented with glucose and HEPES]. For determination of the apical to basolateral permeability (PappA-B), the test compound solution was added to the apical side of the cell monolayer and transport buffer to the basolateral side of the monolayer; for determination of the basolateral to apical permeability (PappB-A), the test compound solution was added to the basolateral side of the cell monolayer and transport buffer to the apical side of the monolayer. Samples were taken from the donor compartment at the beginning of the experiment to confirm mass balance. After an incubation of 2 h at 37° C., samples were taken from both compartments. Samples were analyzed by LC-MS/MS, and the apparent permeability coefficients were calculated. Lucifer Yellow permeability was assayed for each cell monolayer to ensure cell monolayer integrity, and the permeability of Atenolol (low permeability marker) and Sulfasalazine (marker for active excretion) was determined for each batch as quality control.

[2] = test system: rabbit saphenous artery; experiment: Vasorelaxant effect in vitro: phenylephrine-induced contraction of rabbit saphenous artery rings (C-1.1); settings: for IC50: Oryctolagus cuniculus, read-out: IC50, inhibition of phenylephrine induced contractions of rabbit saphenous artery rings; for % contraction (PE-induced contraction of rabbit saphenous artery): mean +/− SEM
Experimental: Rabbits were anaesthetized and sacrificed by intravenous injection of thiopental sodium (about 50 mg/kg) and exsanguinated. The saphenous artery was removed and divided into rings 3 mm wide. The rings were mounted singly on in each case a pair of triangular hooks open at the end and made of 0.3 mm-thick special wire (Remanium®). Each ring was placed under an initial tension in 5 ml organ baths with Krebs-Henseleit solution which was at 37° C., was gassed with carbogen and had the following composition: NaCl 119 mM; KCl 4.8 mM; CaCl2)×2 H2O 1 mM; MgSO4×7 H2O 1.4 mM; KH2PO41.2 mM; NaHCO325 mM; glucose 10 mM; bovine serum albumin 0.001%. The force of contraction was detected with Statham UC2 cells, amplified and digitized via A/D converters (DAS-1802 HC, Keithley Instruments, Munich) and recorded in parallel on chart recorders. Contractions were induced by addition of phenylephrine.
The concentration necessary to reduce the contraction reached in the preceding control by 50% was calculated from this (IC50). The standard application volume was 5 μl. The proportion of DMSO in the bath solution corresponded to 0.1%.

[3] = Protein binding via Transil assay, rat plasma; format: in vitro ADME; settings: Rat Wistar plasma, Transil assay
Excerpt: (§1) The distribution of a test substance between Transil® (phosphatidylcholine lipid bilayers immobilized on silica beads) and plasma is a characteristic feature of any pharmaceutical compound and is dependent on its extent of binding to plasma proteins. By comparing the distribution between Transil® and buffer with the distribution between Transil® and plasma of any species of interest, the unbound fraction in the plasma of the respective animal species can be calculated in vitro. The respective plasma and buffer concentrations were determined via a radioactivity analysis. A detailed description of the method and its validation was published by Schuhmacher et al. (2).

[4] = Protein binding via Transil assay, human plasma; format: in vitro ADME
Excerpt: as §1

[5] = Stability of the crystalline form during micronization (spiral jet mill, XRPD); format: physicochemical
Excerpt: Generally no amorphization even partial nor form conversion should happen during the necessary micronization step.
The corresponding batches (examples 8a-8d) were micronized using a 50 mm spiral jet mill and pressurized nitrogen with the following parameters (see table 16b).
The corresponding batches were micronized using a 100 mm spiral jet mill and pressurized nitrogen with the following parameters (see table 16c).

[6] = Storage stability of pseudopolymorphic forms (XRPD after storage); format: physicochemical; settings: 25° C./60% and 40° C./75% relative humidity
[7] = Human (male) plasma, Transil assay, read-out: Fraction unbound

efflux ratio at 2 h, 2 μM [1]: 20 ± 3.5
Papp A→B at 2 h, 2 μM [1]: 3.1 ± 0.39 ×10⁻⁶ cm/s
Papp B→A at 2 h, 2 μM [1]: 63.1 ± 7.1 ×10⁻⁶ cm/s
IC50 ([2]; 0.5 h, 30 min after incubation): 17 nM
IC50 ([2]; preincubation period of 2.5 h): 3 nM
fraction unbound [3]: 0.00351
fraction unbound [4, 7]: 0.00392
SMILES: O=C(O)CCCCN(CCc1ccccc1OCc1ccc(CCc2ccccc2)cc1)Cc1ccc(C(=O)O)cc1 [comparative example 1, 4-[((4Carboxybutyl)-{2-[(4-phenethylbenzyl)oxy]phenethyl}amino)methyl]benzoic acid]

SMILES: O=C(O)c1ccc(CCN(CCc2ccccc2OCc2ccc(-c3ccc(C(F)(F)F)cc3)cc2Cl)[C@H]2CCCc3nc(C(=O)O)ccc32)cc1 [example 4, (5S)-{[2-(4-Carboxyphenyl)ethyl][2-(2-{[3-chloro-4′-(trifluoromethyl)biphenyl-4-yl]methoxy}phenyl)-ethyl]amino}-5,6,7,8-tetrahydroquinoline-2-carboxylic acid]
stability of the form under micronization ([5]; listed as monohydrate I): stable under micronization conditions
storage stability of the form ([6]; listed as monohydrate I): stable

SMILES: O=C(O)c1ccc(CCN(CCc2ccccc2OCc2ccc(-c3ccc(C(F)(F)F)cc3)cc2Cl)[C@H]2CCCc3nc(C(=O)O)ccc32)cc1 [example 2, (5S)-{[2-(4-Carboxyphenyl)ethyl][2-(2-{[3-chloro-4′-(trifluoromethyl)biphenyl-4-yl]methoxy}phenyl)-ethyl]amino}-5,6,7,8-tetrahydroquinoline-2-carboxylic acid]
stability of the form under micronization [5]: monohydrate II with partial amorphization
stability of the form under micronization ([5]; listed as monohydrate II): partial amorphization occurred under several conditions
storage stability of the form ([6]; listed as monohydrate II): underwent conversion to monohydrate I

SMILES: O=C(O)c1ccc(CCN(CCc2ccccc2OCc2ccc(-c3ccc(C(F)(F)F)cc3)cc2Cl)[C@H]2CCCc3nc(C(=O)O)ccc32)cc1 [comparative example 11, (5S)-5-{[2-(4-carboxyphenyl)ethyl][2-(2-{[3-chloro-4′-(trifluoromethyl)[biphenyl]-4-yl]methoxy}phenyl)ethyl]amino}-5,6,7,8-tetrahydroquinoline-2-carboxylic acid]
Papp at 2 h, 2 μM ([1]; Caco-2, 2 μM, 2 h at 37° C.): 1.51 ×10⁻⁶ cm/s
efflux ratio at 2 h, 2 μM [1]: 0.64 ± 0.1
Papp A→B at 2 h, 2 μM [1]: 1.51 ± 0.17 ×10⁻⁶ cm/s
Papp B→A at 2 h, 2 μM [1]: 0.97 ± 0.06 ×10⁻⁶ cm/s
% contraction (PE-induced contraction of rabbit saphenous artery) ([2]; 10^−5 M/L, incubation time 0.5 h): 19 ± 3.0%
% contraction (PE-induced contraction of rabbit saphenous artery) ([2]; 10^−6 M/L, incubation time 0.5 h): 59 ± 4.9%
% contraction (PE-induced contraction of rabbit saphenous artery) ([2]; 10^−7 M/L, incubation time 0.5 h): 80 ± 4.6%
% contraction (PE-induced contraction of rabbit saphenous artery) ([2]; 10^−8 M/L, incubation time 0.5 h): 92 ± 3.0%
% contraction (PE-induced contraction of rabbit saphenous artery) ([2]; 10^−8 M/L, incubation time 2.5 h): 29 ± 9.3%
% contraction (PE-induced contraction of rabbit saphenous artery) ([2]; 10^−9 M/L, incubation time 0.5 h): 103 ± 3.5%
% contraction (PE-induced contraction of rabbit saphenous artery) ([2]; 10^−9 M/L, incubation time 2.5 h): 47 ± 6.2%
% contraction (PE-induced contraction of rabbit saphenous artery) ([2]; 10^−10 M/L, incubation time 0.5 h): 99 ± 3.4%
% contraction (PE-induced contraction of rabbit saphenous artery) ([2]; 10^−10 M/L, incubation time 2.5 h): 67 ± 5.7%
% contraction (PE-induced contraction of rabbit saphenous artery) ([2]; 10^−11 M/L, incubation time 0.5 h): 100 ± 1.5%
% contraction (PE-induced contraction of rabbit saphenous artery) ([2]; 10^−11 M/L, incubation time 2.5 h): 91 ± 2.0%
% contraction (PE-induced contraction of rabbit saphenous artery) ([2]; 10^−12 M/L, incubation time 2.5 h): 98 ± 0%
IC50 ([2]; 0.5 h, 30 min after incubation): 911 nM
IC50 ([2]; preincubation period of 2.5 h): 0.8 nM
fraction unbound [3]: 0.00224
fraction unbound [4, 7]: 0.000764
fraction unbound ([4]; plasma (Transil beads), human plasma, read-out: plasma fu (fraction unbound)): 0.000764
